We go through one molecule from BindingDB's records for PubMed 39270452 (Haihe Biopharma).

A word on the IC50: it is the concentration that inhibits the measured activity by half.

SMILES strings stand for the structures.

In the experiment the target is T1, Ectonucleotide pyrophosphatase/phosphodiesterase family member 1 (Homo sapiens, UniProt P22413).
T1 sequence (P22413 whole entry): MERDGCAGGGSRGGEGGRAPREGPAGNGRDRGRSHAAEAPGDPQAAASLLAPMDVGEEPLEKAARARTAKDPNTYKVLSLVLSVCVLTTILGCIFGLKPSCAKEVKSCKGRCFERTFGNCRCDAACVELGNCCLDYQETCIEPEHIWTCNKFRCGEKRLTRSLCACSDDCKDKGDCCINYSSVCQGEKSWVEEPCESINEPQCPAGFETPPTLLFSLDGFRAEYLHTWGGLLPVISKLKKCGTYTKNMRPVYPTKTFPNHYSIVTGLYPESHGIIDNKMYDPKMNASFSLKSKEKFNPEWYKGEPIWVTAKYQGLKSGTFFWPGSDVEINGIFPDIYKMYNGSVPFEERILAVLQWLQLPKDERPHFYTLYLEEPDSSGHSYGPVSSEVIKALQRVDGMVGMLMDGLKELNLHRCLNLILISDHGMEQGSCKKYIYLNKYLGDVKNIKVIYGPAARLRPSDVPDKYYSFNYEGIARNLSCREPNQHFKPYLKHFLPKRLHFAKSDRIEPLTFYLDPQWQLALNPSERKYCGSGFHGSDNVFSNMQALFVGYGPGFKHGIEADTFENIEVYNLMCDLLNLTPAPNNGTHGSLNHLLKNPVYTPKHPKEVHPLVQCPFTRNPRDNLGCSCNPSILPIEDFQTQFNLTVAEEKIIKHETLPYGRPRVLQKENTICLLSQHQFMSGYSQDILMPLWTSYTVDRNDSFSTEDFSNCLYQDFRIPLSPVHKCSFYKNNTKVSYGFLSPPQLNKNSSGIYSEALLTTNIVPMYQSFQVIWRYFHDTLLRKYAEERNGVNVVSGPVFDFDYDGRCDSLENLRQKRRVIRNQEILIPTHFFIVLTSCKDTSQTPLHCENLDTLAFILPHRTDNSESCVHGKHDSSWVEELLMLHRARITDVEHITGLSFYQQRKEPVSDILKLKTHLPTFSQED
Kind of experiment: Inhibition of human recombinant ENPP1 at pH 7.5.

For `COc1cc2nccc(Nc3ccc(CC(=O)NO)cc3)c2cc1OC` [US20240383893, Compound A-1], the IC50 turned out to be 89 nM.
